Data as given in PMC11125159 (Pharmaceutics, 2024).
Marks after values point to notes of the source that are not given here.

Assay: Pharmacokinetic assay in rats, plasma LIRA by UPLC-MS/MS
Format: in vivo
Conditions: male Wistar rats, subcutaneous, single dose 200 µg/kg of LIRA, mean ± SD, n = 6
Source text: Ultra-performance liquid chromatography (Acquity UPLC© Waters, Milford, MA, USA), coupled with a triple quadrupole mass spectrometer (XEVO-TQD, Waters®) equipped with a Z sprayTM electrospray ionisation source (Waters®, Milford, MA, USA), was employed to detect, and quantify LIRA levels in rat plasma after treatment. An ACQUITY UPLC BEH C18 reversed-phase chromatographic column (50 mm × 2.1 mm; 1.7 µm) was used, with a mobile phase composed of acetonitrile and ultrapure water, both acidified with 0.1% formic acid, eluted in gradient mode, with varying proportions (20/80, 45/55, 60/40, 80/20, 90/10, 80/20, 30/70, 20/80) at specific time intervals (0, 1.5, 2.0, 2.5, 3.0, 3.5, 4.5, 6.0 min), with a flow rate of 0.3 mL/min, injection volume of 2 µL, with a total analysis time of 7.5 min. The samples were maintained at a temperature of 10 °C in the sampler, while the column oven was maintained at 40 °C. Detection by mass spectrometry was carried out in positive electrospray ionisation (ESI+) mode, in multiple reaction monitoring (MRM) mode, with a source temperature of 150 °C, capillary voltage equal to 3.5 kV, desolvation temperature of 600 °C, desolvation flow of 1000 L/h and gas flow in the cone of 50 L/h. […] The transitions set at m/z 938.7 → 1064.1 for LIRA and m/z 1184.7 → 454.4 for insulin detemir. […]

CCCCCCCCCCCCCCCC(=O)N[C@@H](CCC(=O)NCCCC[C@H](NC(=O)[C@H](C)NC(=O)[C@H](C)NC(=O)[C@H](CCC(N)=O)NC(=O)CNC(=O)[C@H](CCC(=O)O)NC(=O)[C@H](CC(C)C)NC(=O)[C@H](Cc1ccc(O)cc1)NC(=O)[C@H](CO)NC(=O)[C@H](CO)NC(=O)[C@@H](NC(=O)[C@H](CC(=O)O)NC(=O)[C@H](CO)NC(=O)[C@@H](NC(=O)[C@H](Cc1ccccc1)NC(=O)[C@@H](NC(=O)CNC(=O)[C@H](CCC(=O)O)NC(=O)[C@H](C)NC(=O)[C@@H](N)Cc1cnc[nH]1)[C@@H](C)O)[C@@H](C)O)C(C)C)C(=O)N[C@@H](CCC(=O)O)C(=O)N[C@@H](Cc1ccccc1)C(=O)N[C@H](C(=O)N[C@@H](C)C(=O)N[C@@H](Cc1c[nH]c2ccccc12)C(=O)N[C@@H](CC(C)C)C(=O)N[C@H](C(=O)N[C@@H](CCCNC(=N)N)C(=O)NCC(=O)N[C@@H](CCCNC(=N)N)C(=O)NCC(=O)O)C(C)C)[C@@H](C)CC)C(=O)O [Free LIRA, Liraglutide]
Cl: 0.183 ± 0.015 ^b L/h
